# Source: publication PMC3637032 (Clinical Pharmacology : Advances and Applications, 2013)
# Key:
# [1] = Stability of apixaban in human plasma; type: in vitro ADME; conditions: at −20°C
# coagulation factor Xa = conditions: cited from earlier work
# P-glycoprotein = conditions: apixaban: ref not given; famotidine: ref 20; cited from earlier work
# [2] = type: in vivo, human
# [3] = cited from earlier work
# [4] = compound lacks ionizable groups; cited from earlier work
# [5] = tested on: breast cancer resistance protein; conditions: cited from earlier work
# hOCT-2 transporters = conditions: in vitro findings; ref data on file, Bristol-Myers Squibb, Princeton, NJ, USA; cited from earlier work
# [6] = type: in vivo, human; remark: listed apart in the source
# hOCT-1 = conditions: cited from earlier work
# [7] = tested on: human organic cation transporter (hOCT)-3; conditions: cited from earlier work
# hOCT-2 = conditions: cited from earlier work
# [8] = cited from earlier work; remark: listed apart in the source
# gastric pH = conditions: cited from earlier work
structure (smiles),measurement,setting,value
"COc1ccc(-n2nc(C(N)=O)c3c2C(=O)N(c2ccc(N4CCCCC4=O)cc2)CC3)cc1 [Apixaban, 1-(4-methoxyphenyl)-7-oxo-6-(4-(2-oxopiperidin-1-yl)phenyl)-4,5,6,7-tetrahydro-1H-pyrazolo[3,4-c]pyridine-3-carboxamide]",Stability in human plasma,[1],at least 589 days
same,Factor Xa inhibition (description),coagulation factor Xa,"potent, reversible, direct, and highly selective inhibitor"
same,P-glycoprotein substrate,P-glycoprotein,substrate
same,"Deaths, serious adverse events, discontinuations, bleeding-related adverse events","[2]; 18 healthy subjects, both treatment periods","No deaths, serious adverse events, discontinuations due to adverse events, or clinically relevant bleeding-related adverse events"
same,Tolerability,"[2]; apixaban 10 mg alone and with famotidine 40 mg, healthy subjects",well tolerated
same,Effect of food on apixaban exposure,[3],no relevant effect
same,Renal excretion as share of total clearance,[3],approximately 27%
same,Elimination half-life,[3]; clinical studies,approximately 12 hours
same,Oral bioavailability,[3]; clinical studies,approximately 50%
same,Aqueous solubility dependence on pH,[4],not affected by changes in pH
same,Breast cancer resistance protein substrate,[5],substrate
same,hOCT-2 substrate,hOCT-2 transporters,not a substrate
same,AUC(0-inf),"[6]; both, human, plasma, po, 10 mg",2220 ng·h/mL
same,AUC(0-t),"[6]; both, human, plasma, po, 10 mg",2190 ng·h/mL
same,Cmax,"[6]; both, human, plasma, po, 10 mg",230 ng/mL
same,half-life,"[6]; both, human, plasma, po, 10 mg",9.2 h
same,Predose period 2 apixaban concentration as fraction of Cmax,[6]; six subjects with measurable predose concentrations,< 1.5%
NC(N)=Nc1nc(CSCCC(N)=NS(N)(=O)=O)cs1 [famotidine],P-glycoprotein substrate,P-glycoprotein,substrate
same,Inhibition of hOCT-1,hOCT-1,moderate inhibitor
same,Inhibition of hOCT-3,[7],potent inhibitor
same,Inhibition of hOCT-2,hOCT-2,moderate inhibitor
same,Metabolism,[8],minimally metabolized
same,Potential for CYP-mediated drug–drug interactions,[8],minimal potential
same,Time of maximal plasma concentrations after oral administration,[8],2 to 3 h
same,"Effect of coadministration on apixaban Cmax, AUC0–T, or AUC∞","[6]; famotidine 40 mg 3 hours before apixaban 10 mg, healthy subjects",no effect
same,Time for gastric pH to return to baseline after cessation of administration,gastric pH,10–12 hours
same,Time of maximal increases in gastric pH post-dose,gastric pH,1–3 hours
